Reference: patent publication US10870627B2, “Salt of quinazoline derivative, preparation method therefor and application thereof” (SHANGHAI PHARMACEUTICALS HOLDING CO., LTD., priority 2016, dated 2020)

What was measured:
[1] = Solubility determined by visual inspection; assay type: physicochemical; settings: 20° C.
Method: The solubility was determined as follows: a certain amount of the sample was weighed and the solvent was added thereto in portions with stirring or ultrasonication to accelerate dissolution; the amount of the consumed solvent was recorded once the sample was dissolved. […] A certain volume of the solution was taken, followed by filtration, concentration, dissolved with a certain volume of other suitable solvents and subjected to HPLC measurement to obtain accurate data of the solubility.

[2] = Comparison of absorption in rats after intragastric administration of free base and salt (plasma pharmacokinetics); assay type: in vivo, SD rats; settings: for AUC (0-t) / MRT (0-T) / Tmax / t1/2 / Cmax: SD rats, 20 μmol/kg, intragastric administration, plasma
Method: The blood sample was centrifuged at 8000 RPM for 5 minutes, followed by the isolation of the upper plasma. […] 200 μL of the supernatant was taken and centrifuged again for 10 minutes. 50 μL of the supernatant was injected in a 96-well plate. The plasma drug concentration was determined by LC/MS/MS, and the corresponding pharmacokinetic parameters were calculated.

[3] = Dynamic vapor sorption (DVS), isothermal absorption analysis; assay type: physicochemical
Method: In the present invention, according to the common knowledge in the art, the amount of water absorption obtained from the dynamic vapor sorption (DVS) pattern is expressed in percentage by weight.
The isothermal absorption analysis (DVS) data was collected from TA Instruments Q5000 TGA. The software for instrument control was Thermal Advantage and software for analysis was Universal Analysis. 1-10 mg of the sample was generally placed in a platinum crucible, and the weight change of the sample during the relative humidity changing from 20% to 80% was recorded by the TA software. Depending on the specifics of the sample, different steps of sample adsorption and desorption were also involved.

[4] = Water solubility at 20° C. determined by HPLC; assay type: physicochemical
[5] = relative humidity range of 50-80%

| Compound | visual solubility in water [1] [µg/mL] | AUC (0-t) [2] [µM·min] | MRT (0-T) [2] [h] | Tmax [2] [h] | t1/2 [2] [h] | stability of the hydrate (DVS), in words [3, 5] | weight change (water absorbed) by DVS [3, 5] [%] | other results |
| --- | --- | --- | --- | --- | --- | --- | --- | --- |
| C=C(F)C(=O)Nc1cc2c(Nc3ccc(F)c(Cl)c3)ncnc2cc1OCCCN1CCOCC1.O=S(=O)(O)O | 1000 to 2000 | 591.00 ± 29.76 | 5.7252 ± 0.7072 | 1.167 ± 0.2887 | 3.8468 ± 2.704 | – | – | Cmax ([2]; listed as monosulfate): 1660 ± 270 nM; hygroscopicity, in words [3]: fairly hygroscopic |
| C=C(F)C(=O)Nc1cc2c(Nc3ccc(F)c(Cl)c3)ncnc2cc1OCCCN1CCOCC1.O=C(O)[C@H](O)[C@@H](O)[C@H](O)[C@H](O)CO | – | 484.40 ± 201.71 | 6.2613 ± 2.5515 | 1.333 ± 0.5773 | 3.5572 ± 0.3487 | – | – | water solubility at 20° C. determined by HPLC [4]: 51.4 µg/mL; Cmax ([2]; listed as mono-D-gluconate): 1120 ± 280 nM; AUC (0-t) and Cmax, comparison in words ([2]; rats, oral, same dose, free base and 6 salts): relatively low |
| C=C(F)C(=O)Nc1cc2c(Nc3ccc(F)c(Cl)c3)ncnc2cc1OCCCN1CCOCC1.O.O.O=C(O)CC(O)(CC(=O)O)C(=O)O [crystal form 7 of the dihydrate] | – | – | – | – | – | – | – | weight change (water absorbed) by DVS ([3]; relative humidity range of 10-80%): 0.38% |
| C=C(F)C(=O)Nc1cc2c(Nc3ccc(F)c(Cl)c3)ncnc2cc1OCCCN1CCOCC1.O.O.O.O=C(O)CC(O)(CC(=O)O)C(=O)O [crystal form 10 of the trihydrate] | – | – | – | – | – | stable | 1.1 | water eliminated by DVS ([3]; below a relative humidity of 50%): 3.5% |
| C=C(F)C(=O)Nc1cc2c(Nc3ccc(F)c(Cl)c3)ncnc2cc1OCCCN1CCOCC1.O.O.O=C(O)CC(O)(CC(=O)O)C(=O)O [crystal form 11 of the dihydrate] | – | – | – | – | – | stable | 5.3 | – |
| C=C(F)C(=O)Nc1cc2c(Nc3ccc(F)c(Cl)c3)ncnc2cc1OCCCN1CCOCC1.O=S(=O)(O)O.O=S(=O)(O)O [disulfate of the quinazoline derivative] | 910 to 1000 | – | – | – | – | – | – | – |
